System: 996289-038-R-J1-PDC spheroid viability
Experiment: Anticancer human tumor 996289-038-R-J1-PDC patient-derived colon adenocarcinoma cell line growth inhibition [PI3K]
Conditions: spheroids with HUVEC and MSC; for IC50: curve of first compound; for viability, T/C: stronger effect = lower value; active = viability on the fitted dose curve at most 10% of control; inactive = the rest
Outline: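 Stroma-containing spheroids: tumor line, pooled-donor HUVEC, hMSC. Treatments: targeted agents with PI3K inhibitors. Dosing: clinically relevant, half-log spacing, 10 microM ceiling without known Cmax. Read-out: cell viability.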

[1] = second compound 0.0316 µM, first compound 0.0316 µM
[2] = second compound 0.0316 µM, first compound 0.1 µM
[3] = second compound 0.1 µM, first compound 0.0316 µM
[4] = second compound 0.1 µM, first compound 0.1 µM
[5] = second compound 0.316 µM, first compound 0.0316 µM
[6] = second compound 0.316 µM, first compound 0.1 µM
[7] = second compound 1 µM, first compound 0.0316 µM
[8] = second compound 1 µM, first compound 0.1 µM
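Also: spheroids exposed to compounds for seven days before viability read.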
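For viability, T/C in this document: luminescence used as a proxy for viable cell amount; percent viability relative to DMSO vehicle control as 100%.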

CC(Cn1ccc(-c2ccc(C#N)c(Cl)c2)n1)NC(=O)c1cc(C(C)O)[nH]n1 (centres undefined) + CC(Nc1ncnc2nc[nH]c12)c1cc2cccc(Cl)c2c(=O)n1-c1ccccc1
> 10000 nM: IC50 (second compound 0.0316 µM) | IC50 (second compound 0.1 µM) | IC50 (second compound 0.316 µM) | IC50 (second compound 1 µM) | IC50 (second compound 3.16 µM) | IC50 (second compound 10 µM)
inactive: viability, T/C [1] 109% | viability, T/C [2] 89.9% | viability, T/C (second compound 0.0316 µM, first compound 0.316 µM) 108% | viability, T/C (second compound 0.0316 µM, first compound 1 µM) 110% | viability, T/C (second compound 0.0316 µM, first compound 3.16 µM) 106% | viability, T/C (second compound 0.0316 µM, first compound 10 µM) 101% | viability, T/C [3] 95.2% | viability, T/C [4] 97.3% | viability, T/C (second compound 0.1 µM, first compound 0.316 µM) 102% | viability, T/C (second compound 0.1 µM, first compound 1 µM) 101% | viability, T/C (second compound 0.1 µM, first compound 3.16 µM) 110% | viability, T/C (second compound 0.1 µM, first compound 10 µM) 91.5% | viability, T/C [5] 105% | viability, T/C [6] 99.2% | viability, T/C (second compound 0.316 µM, first compound 0.316 µM) 105% | viability, T/C (second compound 0.316 µM, first compound 1 µM) 93.9% | viability, T/C (second compound 0.316 µM, first compound 3.16 µM) 113% | viability, T/C (second compound 0.316 µM, first compound 10 µM) 91.3% | viability, T/C [7] 95.7% | viability, T/C [8] 96.2% | viability, T/C (second compound 1 µM, first compound 0.316 µM) 97.3% | viability, T/C (second compound 1 µM, first compound 1 µM) 99.3% | viability, T/C (second compound 1 µM, first compound 3.16 µM) 102% | viability, T/C (second compound 1 µM, first compound 10 µM) 106% | viability, T/C (second compound 3.16 µM, first compound 0.0316 µM) 91.6% | viability, T/C (second compound 3.16 µM, first compound 0.1 µM) 92.7% | viability, T/C (second compound 3.16 µM, first compound 0.316 µM) 96.7% | viability, T/C (second compound 3.16 µM, first compound 1 µM) 90.6% | viability, T/C (second compound 3.16 µM, first compound 3.16 µM) 91.9% | viability, T/C (second compound 3.16 µM, first compound 10 µM) 84.7% | viability, T/C (second compound 10 µM, first compound 0.0316 µM) 80.2% | viability, T/C (second compound 10 µM, first compound 0.1 µM) 81.8% | viability, T/C (second compound 10 µM, first compound 0.316 µM) 84.6% | viability, T/C (second compound 10 µM, first compound 1 µM) 91.5% | viability, T/C (second compound 10 µM, first compound 3.16 µM) 100% | viability, T/C (second compound 10 µM, first compound 10 µM) 89.8%

CC(C)n1nc(-c2ccc3oc(N)nc3c2)c2c(N)ncnc21 + CC(Nc1ccc2c(c1)OCCn1cc(N3C(=O)OCC3C(F)F)nc1-2)C(N)=O
8.43 nM: IC50 (second compound 0.316 µM)
inactive: viability, T/C (second compound 0.00316 µM, first compound 0.000316 µM) 95.9% | viability, T/C (second compound 0.00316 µM, first compound 0.001 µM) 82.8% | viability, T/C (second compound 0.00316 µM, first compound 0.00316 µM) 90.5% | viability, T/C (second compound 0.00316 µM, first compound 0.01 µM) 81.1% | viability, T/C (second compound 0.00316 µM, first compound 0.0316 µM) 64.5% | viability, T/C (second compound 0.00316 µM, first compound 0.1 µM) 29.7% | viability, T/C (second compound 0.01 µM, first compound 0.000316 µM) 94.8% | viability, T/C (second compound 0.01 µM, first compound 0.001 µM) 93.2% | viability, T/C (second compound 0.01 µM, first compound 0.00316 µM) 84.6% | viability, T/C (second compound 0.01 µM, first compound 0.01 µM) 75.9% | viability, T/C (second compound 0.01 µM, first compound 0.0316 µM) 62.4% | viability, T/C (second compound 0.01 µM, first compound 0.1 µM) 28.5% | viability, T/C (second compound 0.0316 µM, first compound 0.000316 µM) 100% | viability, T/C (second compound 0.0316 µM, first compound 0.001 µM) 95.6% | viability, T/C (second compound 0.0316 µM, first compound 0.00316 µM) 79.1% | viability, T/C (second compound 0.0316 µM, first compound 0.01 µM) 63.2% | viability, T/C [1] 54.7% | viability, T/C [2] 29.1% | viability, T/C (second compound 0.1 µM, first compound 0.000316 µM) 85% | viability, T/C (second compound 0.1 µM, first compound 0.001 µM) 75.3% | viability, T/C (second compound 0.1 µM, first compound 0.00316 µM) 67.8% | viability, T/C (second compound 0.1 µM, first compound 0.01 µM) 62% | viability, T/C [3] 48.5% | viability, T/C [4] 23.4% | viability, T/C (second compound 0.316 µM, first compound 0.000316 µM) 64% | viability, T/C (second compound 0.316 µM, first compound 0.001 µM) 67.8% | viability, T/C (second compound 0.316 µM, first compound 0.00316 µM) 57.2% | viability, T/C (second compound 0.316 µM, first compound 0.01 µM) 43.9% | viability, T/C [5] 39.8% | viability, T/C [6] 17.1% | viability, T/C (second compound 1 µM, first compound 0.000316 µM) 52.3% | viability, T/C (second compound 1 µM, first compound 0.001 µM) 60.9% | viability, T/C (second compound 1 µM, first compound 0.00316 µM) 57.2% | viability, T/C (second compound 1 µM, first compound 0.01 µM) 41.6% | viability, T/C [7] 33.7% | viability, T/C [8] 16%
23.4 nM: IC50 (second compound 0.1 µM)
46.1 nM: IC50 (second compound 0.01 µM)
5.5 nM: IC50 (second compound 1 µM)
31.4 nM: IC50 (second compound 0.0316 µM)
51.2 nM: IC50 (second compound 0.00316 µM)

From PubChem BioAssay AID1963965 (Molecular Pharmacology Branch, DTP, NCI, 2024)
